Assay results: patent publication US20120095062A1, “TRICYCLIC COMPOUNDS, COMPOSITIONS, AND METHODS” (Pfizer Inc., priority 2007, published 2012)

Columns and labels:
IFNγ = assay: Ex vivo LPS-stimulated human whole blood, IFNγ production; assay type: cell-based; conditions: mean
Method: (§1) Venous blood from human donors was collected as 10 ml aliquots in tubes containing sodium heparin (BD Vacutainer from Becton Dickinson and Company, Franklin Lakes, N.Y.). Blood was added to sterile polystyrene round bottom 96-well tissue culture plates (Corning Costar) at 100 μl/well, omitting the outside wells. Media (RPMI Medium 1640 with L-glutamine, Invitrogen Corporation, Carlsbad, Calif.) was added to the blood in 90 μl aliquots for a total volume of 190 μl. Outside wells were filled with 200 μl of media. Blood was placed in a humidified 37° C. incubator with 5% CO2 while compounds were prepared (nearly 60 minutes).
(§2) Compounds were prepared from 10 mM stock solutions in dimethylsulfoxide (DMSO, Sigma-Aldrich). […] Final DMSO and ethanol concentrations in the assay were 0.1% and 1.5%. The samples were gently triturated twice to mix and replaced in the incubator. LPS stock (E. coli serotype 0111:84, Sigma-Aldrich), stored in aliquots of 100 μg/ml in RPMI at −20° C., was diluted 1/50 in RPMI to make a working stock solution. After 60 minutes of incubation, 10 μl of the prepared LPS working stock was added to the blood to a final concentration of 100 ng/ml, omitting wells to be used as negative control. The samples were again gently triturated and the plates incubated overnight for 22 hours. Following incubation, the blood was centrifuged at 1500×g for 5 minutes and the plasma removed to either freeze at −20° C. or assay for cytokine release.
(§3) IL-1β, IFNγ,IL-6, and TNFα protein levels were measured using Meso Scale assay kits (Meso Scale Discovery, Gaithersburg, Md.). Reagents were allowed to come to room temperature. Meso Scale plates were blocked with […] of human plasma/serum assay diluent with gentle shaking for 60 minutes at room temperature. Plates were washed 3× with wash buffer (PBS, Invitrogen Corporation, with 0.05% Tween-20, Sigma-Aldrich). Calibrators for standard curves were prepared in human plasma/serum assay diluent as a 1/5 serial dilution to achieve final concentrations ranging from 50000 pg/ml to 3.2 pg/ml. Samples and calibrators were added at 20 μl/well, then incubated at room temperature with gentle shaking for 90 minutes. Plates were again washed 3 times with wash buffer. Detection antibody was diluted in human plasma/serum antibody diluent to 1 μg/ml and added to the plate at 20 μl/well. Plates were incubated as before for 60 minutes and washed again. Read Buffer T (4×) was diluted 1:1 with mqH2O to 2 times concentration and 150 μl added to each well. Plates were analyzed on the SECTOR Imager 6000 (Meso Scale Discovery) to generate raw signal values.
(§4) IL-1β, IFNγ, IL-6, and TNFα sample values were verified to be within the calibrator standard curves. Individual values were compared to positive and negative controls (vehicle treated blood with LPS and vehicle treated blood without LPS, respectively) to generate % inhibition. Triplicate values were averaged for each donor. The values for two donors were averaged (only one donor was used for IL-1β) and graphed using 4-parameter fit curves in the GraFit 5.0.11 application.

TNFα = assay: Ex vivo LPS-stimulated human whole blood, TNFα production; assay type: cell-based; conditions: mean
Method: as §1, §2, §3
as §4, with “Individual” for “IL-1β, IFNγ, IL-6, and TNFα sample values were verified to be within the calibrator standard curves. Individual”

IL-1β = assay: Ex vivo LPS-stimulated human whole blood, IL-1β production; assay type: cell-based; conditions: one donor
Method: as §1, §2, §3, §4

LPS-induced serum TNFα = LPS-induced serum TNFα suppression, 28-day repeat dose mouse model; assay type: in vivo; conditions: 672 h, mice, oral gavage 28 days
IL-6 = assay: Ex vivo LPS-stimulated human whole blood, IL-6 production; assay type: cell-based; conditions: mean
Method: as §1, §2, §3, §4

[1] = tested on: IL-6, Human A549 lung epithelial cells; assay: IL-6 inhibition in IL-1β-stimulated A549 cells; assay type: cell-based; conditions: for IC50: A549, 20 h, A549 cells, 1 ng/mL IL-1β, 20 hours, read-out: IL-6 IC50; for inhibition: A549, A549 cells, Prednisolone (1 μM) = 100% inhibition control
Method: Human A549 lung epithelial cells (American Type Culture Collection, Rockville, Md.) were cultured in Kaighn's F-12K medium with penicillin-streptomycin (10 U/mL) and 10% heat-inactivated fetal bovine serum (all from Invitrogen, Grand Island, N.Y.). A549 cells were plated at a density of 30,000 cells/well in 96-well plates and incubated overnight at 37° C. and with 5% CO2. The cells were serum-starved by replacing the growth medium with serum-free Kaighn's F-12K medium with penicillin-streptomycin (10 U/mL) and, again, incubating overnight at 37° C. and with 5% CO2. On the third day, the medium was replaced with fresh serum-free medium and the cells were incubated with or without compound (vehicle was DMSO at 0.1% maximum concentration) for approximately 1 hour and then stimulated with 1 ng/mL recombinant human IL-1β (R&D Systems, Minneapolis, Minn.) for 20 hours at 37° C. and with 5% CO2. Cell supernatants were collected for determination of IL-6 levels using MSD (Meso Scale Discovery, Gaithersburg, Md.) 96-well Single Spot plates as per the manufacturer's instructions. Plates were read with an MSD Sector Imager 6000. […] Vehicle was used to define the 0% inhibition control. Percent inhibition for each compound concentration, relative to these controls, was calculated using Excel (Microsoft, Redmond, Wash.). IC50 values were generated using GraFit 5.0 data analysis software (Erithacus Software Ltd., Surrey, UK).

TNFα, U937 cells = assay: TNFα inhibition in LPS-stimulated differentiated U937 cells; assay type: cell-based; parameters: inhibition: dose or concentration left out as unconfirmed; conditions: Homo sapiens
Method: Cells were differentiated to a monocyte/macrophage phenotype with phorbol 12-myristate 13-acetate (Sigma-Aldrich, St. Louis, Mo.), 20 ng/mL, overnight. […] Following recovery, the cells were scraped, counted, and plated in accordance to the experimental design prior to stimulation with LPS, as described below. U937 cells were differentiated and plated at a density of 200,000 cells/well in 96-well plates. […] Louis, Mo.) for four hours at 37° C. and with 5% CO2. Cell supernatants were collected for determination of TNFα levels using an in-house sandwich-type ELISA. Mouse anti-human TNFα monoclonal antibody (clone 28401.111) and biotinylated goat anti-human TNFα (R&D Systems, Minneapolis, Minn.) were used as the capture and detection antibodies, respectively. Streptavidin-horseradish peroxidase (HRP) (R&D Systems, Minneapolis, Minn.) and K-Blue Substrate/Red Stop (Neogen, Lexington, Ky.) were used as the detection system. Absorbance was measured at 650 nm. TNFα concentrations were interpolated from a human TNFα recombinant protein (R&D Systems, Minneapolis, Minn.) standard curve using a four parameter logistics model by Magellan 4.11 data analysis software (Tecan, Durham, N.C.). […] Vehicle was used to define the 0% inhibition control. Percent inhibition for each concentration of compound, relative to these controls, was calculated using Excel (Microsoft, Redmond, Wash.).

Serum osteocalcin = Serum osteocalcin suppression, 28-day repeat dose mouse model; assay type: in vivo, mice; conditions: Mus musculus, 672 h; mice, oral gavage 28 days, serum osteocalcin
[2] = tested on: Mouse Collagen-induced arthritis; assay: Therapeutic mouse collagen-induced arthritis (mCIA) model; assay type: in vivo; conditions: mice, dosing day 34 through day 49, read-out: Therapeutic mCIA (ED50 dose)
Source text: Mouse Collagen-induced arthritis is a commonly used chronic, preclinical model of rheumatoid arthritis in which joint swelling and bone destruction occur following immunization with type II collagen. Reduction of disease incidence and severity has been shown previously to be predictive of disease-modification and signs and symptoms mitigation, respectively, in a clinical setting.
In the therapeutic mCIA model, induction of disease incidence and severity was synchronized via LPS stimulation. Male […] mice were immunized with 100 ug of bovine type II collagen (bCII) on day 0. All mice received an intraperitoneal injection of 20 μg of LPS on day 28 and disease was allowed to develop through day 34. At day 34, all mice had disease (incidence=100%) with an average severity score of seven. Dosing of compounds was initiated in the therapeutic mode on day 34 and continued through day 49. Different treatments were compared by measuring the decrease in incidence (i.e., resolution of disease) and the decrease in severity of paw swelling over time.

## Cc1ncccc1CNC(=O)c1ccc2c(c1)CC[C@@H]1C[C@@](O)(CCC(F)(F)F)CC[C@@]21Cc1ccccc1 [Comparator A, (4βS,7S,8αR)-4β-benzyl-7-hydroxy-N-((2-methylpyridin-3-yl)methyl)-7-(3,3,3-trifluoropropyl)-4β,5,6,7,8,8α,9,10-octahydrophenanthrene-2-carboxamide]
IFNγ; 1.371742 nM
  inhibition at 0.00137174 µM: 18.1%
IFNγ; 4.115226 nM
  inhibition at 0.00411523 µM: -1.7%
IFNγ; 12.34568 nM
  inhibition at 0.0123457 µM: 0.016%
IFNγ; 37.03704 nM
  inhibition at 0.037037 µM: -9.81%
IFNγ; 111.1111 nM
  inhibition at 0.111111 µM: 8.74%
IFNγ; 333.3333 nM
  inhibition at 0.333333 µM: -6.32%
IFNγ; 1000 nM
  inhibition at 1 µM: 16.5%
IFNγ; 3000 nM
  inhibition at 3 µM: 28%
TNFα; 1.371742 nM
  inhibition at 0.00137174 µM: 18.1%
TNFα; 4.115226 nM
  inhibition at 0.00411523 µM: -0.861%
TNFα; 12.34568 nM
  inhibition at 0.0123457 µM: 0.0309%
TNFα; 37.03704 nM
  inhibition at 0.037037 µM: -4.19%
TNFα; 111.1111 nM
  inhibition at 0.111111 µM: -3.82%
TNFα; 333.3333 nM
  inhibition at 0.333333 µM: -4.61%
TNFα; 1000 nM
  inhibition at 1 µM: -5.44%
TNFα; 3000 nM
  inhibition at 3 µM: -3.04%
IL-1β; 1.371742 nM
  inhibition at 0.00137174 µM: 32%
IL-1β; 4.115226 nM
  inhibition at 0.00411523 µM: 22%
IL-1β; 12.34568 nM
  inhibition at 0.0123457 µM: 22.8%
IL-1β; 37.03704 nM
  inhibition at 0.037037 µM: 17.3%
IL-1β; 111.1111 nM
  inhibition at 0.111111 µM: 8.6%
IL-1β; 333.3333 nM
  inhibition at 0.333333 µM: 12.2%
IL-1β; 1000 nM
  inhibition at 1 µM: 15%
IL-1β; 3000 nM
  inhibition at 3 µM: 16.4%
LPS-induced serum TNFα
  ED50: 60 mg/kg
IL-6; 1.371742 nM
  inhibition at 0.00137174 µM: 1.46%
IL-6; 4.115226 nM
  inhibition at 0.00411523 µM: -4.34%
IL-6; 12.34568 nM
  inhibition at 0.0123457 µM: -1.13%
IL-6; 37.03704 nM
  inhibition at 0.037037 µM: -3.52%
IL-6; 111.1111 nM
  inhibition at 0.111111 µM: -3.5%
IL-6; 333.3333 nM
  inhibition at 0.333333 µM: -2.83%
IL-6; 1000 nM
  inhibition at 1 µM: -0.89%
IL-6; 3000 nM
  inhibition at 3 µM: -1.97%
[1]
  IC50: > 36.4 nM
  inhibition: 59.9%
TNFα, U937 cells; U-937
  inhibition: 35%
TNFα, U937 cells; U-937, 4 h, U937 cells, 100 ng/mL LPS, four hours, read-out: TNFα IC50
  IC50: > 1000 nM
Serum osteocalcin
  ED50: 37 mg/kg

## Cc1cnc(NC(=O)c2ccc3c(c2)CC[C@@H]2C[C@@](O)(C(F)(F)F)CC[C@@]32Cc2ccccc2)c(C)n1 [Comparator B, (4βS,7R,8αR)-4β-benzyl-N-(3,5-dimethylpyrazin-2-yl)-7-hydroxy-7-(trifluoromethyl)-4β,5,6,7,8,8α,9,10-octahydrophenanthrene-2-carboxamide]
LPS-induced serum TNFα
  ED50: 1.64 mg/kg
[1]
  IC50: 4 nM
  inhibition: 75.8%
[2]
  ED50: 2.9 mg/kg
Serum osteocalcin
  ED50: 2.39 mg/kg

## Cc1ncccc1NC(=O)c1ccc2c(c1)CC[C@@H]1C[C@@](O)(CCC(F)(F)F)CC[C@@]21Cc1ccccc1 [Comparator C, (4βS,7R,8αR)-4β-benzyl-7-hydroxy-N-(2-methylpyridin-3-yl)-7-(3,3,3-trifluoropropyl)-4β,5,6,7,8,8α,9,10-octahydrophenanthrene-2-carboxamide]
LPS-induced serum TNFα
  ED50: 0.27 mg/kg
[1]
  IC50: 1.1 nM
  inhibition: 82.6%
[2]
  ED50: 2 mg/kg
Serum osteocalcin
  ED50: 1.01 mg/kg

## Cc1ncccc1NC(=O)c1ccc2c(c1)C(=O)C[C@@H]1C[C@@](O)(C(F)(F)F)CC[C@@]21Cc1ccccc1 [Comparator E, (4β,7R,8αS)-4β-benzyl-7-hydroxy-N-(2-methylpyridin-3-yl)-10-oxo-7-(trifluoromethyl)-4β,5,6,7,8,8α,9,10-octahydrophenanthrene-2-carboxamide]
LPS-induced serum TNFα
  ED50: 0.14 mg/kg
[1]
  IC50: 1.1 nM
  inhibition: 79.7%
[2]
  ED50: 0.5 mg/kg
Serum osteocalcin
  ED50: 0.17 mg/kg

## Cc1ncccc1NC(=O)c1ccc2c(c1)[C@H](O)C[C@@H]1C[C@@](O)(C(F)(F)F)CC[C@@]21Cc1ccccc1 [Comparator F, (4βS,7R,8αR,10R)-4β-benzyl-7,10-dihydroxy-N-(2-methylpyridin-3-yl)-7-(trifluoromethyl)-4β,5,6,7,8,8α,9,10-octahydrophenanthrene-2-carboxamide]
LPS-induced serum TNFα
  ED50: 2.11 mg/kg
[1]
  IC50: 7 nM
  inhibition: 83.3%
[2]
  ED50: > 10 mg/kg
Serum osteocalcin
  ED50: 1.19 mg/kg

## Cc1ncccc1NC(=O)c1ccc2c(c1)C=C[C@@H]1C[C@@](O)(C(F)(F)F)CC[C@@]21Cc1ccccc1 [Comparator I]
LPS-induced serum TNFα
  ED50: 0.73 mg/kg
[1]
  IC50: 2.8 nM
  inhibition: 67.5%
[2]
  ED50: 17 mg/kg
Serum osteocalcin
  ED50: 5.2 mg/kg

## Cc1ncc(NC(=O)c2ccc3c(c2)CC[C@@H]2C[C@@](O)(CCC(F)(F)F)CC[C@@]32Cc2ccccc2)c(C)n1 [Comparator J, (4βS,7S,8αR)-4β-benzyl-N-(2,4-dimethylpyrimidin-5-yl)-7-hydroxy-7-(3,3,3-trifluoropropyl)-4β,5,6,7,8,8α,9,10-octahydrophenanthrene-2-carboxamide]
LPS-induced serum TNFα
  ED50: 0.09 mg/kg
[1]
  IC50: 291 nM
  inhibition: 55%
[2]
  ED50: 3 mg/kg
Serum osteocalcin
  ED50: 0.73 mg/kg
